Test results published in patent publication US20140249135A1, “PIM KINASE INHIBITORS AND METHODS OF THEIR USE” (NOVARTIS AG, priority 2007, published 2014).

Key:
Pim3 kinase = Pim3 kinase (Homo sapiens, UniProt Q86V86); test: Pim3 ATP depletion assay; type: biochemical; settings: read-out: IC50 (μM) PIM3
Pim1 kinase = Pim1 kinase (Homo sapiens, UniProt P11309); test: Pim1 ATP depletion assay; type: biochemical; settings: Pim1 ATP depletion assay; read-out: IC50 (μM) PIM1;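 also: Luciferase-luciferin luminescence readout of residual ATP after PIM1 transfers phosphate to a peptide substrate, 40 µM ATP added, reaction run to roughly half ATP consumption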
Chain of Pim1 kinase (P11309 whole entry): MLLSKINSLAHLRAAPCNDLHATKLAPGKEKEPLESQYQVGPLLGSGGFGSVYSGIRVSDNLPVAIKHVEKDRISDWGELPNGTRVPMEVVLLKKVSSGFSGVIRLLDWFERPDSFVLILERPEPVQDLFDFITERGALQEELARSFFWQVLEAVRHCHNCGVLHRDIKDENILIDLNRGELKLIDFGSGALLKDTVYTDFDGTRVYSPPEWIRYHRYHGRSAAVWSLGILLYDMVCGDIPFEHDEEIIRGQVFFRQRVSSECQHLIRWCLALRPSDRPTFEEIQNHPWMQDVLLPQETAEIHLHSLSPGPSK

KDR kinase = KDR kinase (Homo sapiens, UniProt P35968); test: KDR AlphaScreen assay; settings: KDR IC50 (μM)
Chain of KDR kinase (P35968 20-1356): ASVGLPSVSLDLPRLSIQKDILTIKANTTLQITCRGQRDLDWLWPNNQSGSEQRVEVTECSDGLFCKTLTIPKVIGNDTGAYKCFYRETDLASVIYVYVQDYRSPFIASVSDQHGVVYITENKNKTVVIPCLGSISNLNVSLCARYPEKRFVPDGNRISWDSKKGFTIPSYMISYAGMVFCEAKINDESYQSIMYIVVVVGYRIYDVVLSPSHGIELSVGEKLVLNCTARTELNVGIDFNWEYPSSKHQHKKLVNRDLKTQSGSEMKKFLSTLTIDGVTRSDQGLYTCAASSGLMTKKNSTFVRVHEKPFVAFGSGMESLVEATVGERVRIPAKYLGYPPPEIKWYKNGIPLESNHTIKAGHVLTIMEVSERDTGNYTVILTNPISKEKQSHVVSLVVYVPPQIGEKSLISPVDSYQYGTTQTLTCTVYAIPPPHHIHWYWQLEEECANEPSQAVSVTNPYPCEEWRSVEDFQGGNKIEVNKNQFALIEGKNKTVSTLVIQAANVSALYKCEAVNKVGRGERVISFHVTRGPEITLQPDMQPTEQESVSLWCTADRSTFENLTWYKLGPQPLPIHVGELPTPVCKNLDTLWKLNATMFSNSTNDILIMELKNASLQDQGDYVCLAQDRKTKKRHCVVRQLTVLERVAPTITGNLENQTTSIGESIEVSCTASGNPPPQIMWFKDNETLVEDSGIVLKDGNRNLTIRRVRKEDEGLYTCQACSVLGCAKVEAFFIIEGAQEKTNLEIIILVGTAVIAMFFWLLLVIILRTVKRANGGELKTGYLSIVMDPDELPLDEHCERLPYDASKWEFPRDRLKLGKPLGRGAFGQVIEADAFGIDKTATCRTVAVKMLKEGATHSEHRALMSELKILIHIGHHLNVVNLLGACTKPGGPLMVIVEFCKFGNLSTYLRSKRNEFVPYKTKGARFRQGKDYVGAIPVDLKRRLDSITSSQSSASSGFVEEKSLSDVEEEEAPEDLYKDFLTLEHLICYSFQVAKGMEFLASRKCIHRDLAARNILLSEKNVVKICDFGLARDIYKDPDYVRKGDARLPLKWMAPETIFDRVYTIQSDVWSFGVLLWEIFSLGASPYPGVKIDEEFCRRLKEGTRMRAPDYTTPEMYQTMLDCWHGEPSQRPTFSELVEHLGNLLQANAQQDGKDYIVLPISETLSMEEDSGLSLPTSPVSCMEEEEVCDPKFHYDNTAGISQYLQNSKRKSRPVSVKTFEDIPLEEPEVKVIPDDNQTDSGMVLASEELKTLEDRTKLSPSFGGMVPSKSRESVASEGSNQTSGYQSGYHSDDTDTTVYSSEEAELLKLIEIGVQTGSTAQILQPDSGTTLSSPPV

[1] = molecular target: T1, human full length PKCE enzyme (Homo sapiens, UniProt Q02156); test: In vitro PKCE assay; type: biochemical; settings: 10 nM enzyme, 40 uM peptide substrate, 20 uM ATP, KinaseGlo Plus readout; read-out: PKCε IC50
T1 construct: human full length PKCE enzyme purchased from InVitrogen; purchased InVitrogen
T1 sequence (Q02156 1-737): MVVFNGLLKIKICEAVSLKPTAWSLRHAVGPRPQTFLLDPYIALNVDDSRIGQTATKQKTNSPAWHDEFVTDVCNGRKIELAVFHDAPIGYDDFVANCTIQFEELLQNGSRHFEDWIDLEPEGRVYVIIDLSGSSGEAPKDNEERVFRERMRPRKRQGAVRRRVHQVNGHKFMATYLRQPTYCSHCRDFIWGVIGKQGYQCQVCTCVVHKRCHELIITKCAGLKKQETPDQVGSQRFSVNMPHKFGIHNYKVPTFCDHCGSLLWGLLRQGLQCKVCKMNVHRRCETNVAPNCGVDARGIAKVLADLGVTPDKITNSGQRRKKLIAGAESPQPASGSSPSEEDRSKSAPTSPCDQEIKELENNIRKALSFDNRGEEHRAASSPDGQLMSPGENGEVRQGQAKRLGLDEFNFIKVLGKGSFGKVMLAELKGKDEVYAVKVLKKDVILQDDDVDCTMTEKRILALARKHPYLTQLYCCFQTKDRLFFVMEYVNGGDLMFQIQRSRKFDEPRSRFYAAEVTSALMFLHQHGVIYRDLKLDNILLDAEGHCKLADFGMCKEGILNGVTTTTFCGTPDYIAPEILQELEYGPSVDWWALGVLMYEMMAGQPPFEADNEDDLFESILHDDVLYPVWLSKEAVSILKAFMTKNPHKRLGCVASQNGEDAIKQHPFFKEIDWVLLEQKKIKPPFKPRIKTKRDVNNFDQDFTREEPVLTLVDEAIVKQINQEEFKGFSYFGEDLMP

Pim2 kinase = Pim2 kinase (Homo sapiens, UniProt Q9P1W9); test: Pim2 ATP depletion assay; type: biochemical; settings: read-out: IC50 (μM) PIM2;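 also: Luciferase-based luminescent readout of ATP remaining after PIM2 phosphorylates a BAD peptide, final 5 nM enzyme, 4 µM ATP, 10 µM peptide, 2.5% DMSO, run to roughly half ATP consumption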
Chain of Pim2 kinase (Q9P1W9 whole entry): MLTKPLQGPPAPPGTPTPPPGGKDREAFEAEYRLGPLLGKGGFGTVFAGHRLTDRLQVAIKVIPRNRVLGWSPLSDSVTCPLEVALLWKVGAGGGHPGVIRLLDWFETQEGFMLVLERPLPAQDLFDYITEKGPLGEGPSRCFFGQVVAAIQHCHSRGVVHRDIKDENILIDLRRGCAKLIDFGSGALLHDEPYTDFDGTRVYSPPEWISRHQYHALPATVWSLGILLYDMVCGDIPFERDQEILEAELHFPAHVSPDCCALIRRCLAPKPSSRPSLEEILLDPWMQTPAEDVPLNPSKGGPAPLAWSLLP

Structure (SMILES) | IC50 (Pim3 kinase) | IC50 (Pim1 kinase) | IC50 (KDR kinase) | IC50 [1] | IC50 (Pim2 kinase)
Nc1ncc(Br)nc1C(=O)Nc1ccccc1N1CCCC(N)C1 (centres unmarked) [Example 204, 3-amino-N-[2-(3-aminopiperidin-1-yl)phenyl]-6-bromopyrazine-2-carboxamide] | < 1 µM | < 1 µM | 1 to 10 µM | < 1000 nM | < 1 µM
Nc1ncc(Br)nc1C(=O)Nc1ccccc1N1CCNCC1 [Example 206, 3-amino-6-bromo-N-(2-piperazin-1-ylphenyl)pyrazine-2-carboxamide] | < 1 µM | < 1 µM | 1 to 10 µM | < 1000 nM | 1 to 10 µM
COc1ccc(N2CCC(N)CC2)c(NC(=O)c2nc(Br)cnc2N)c1 [Example 211, 3-amino-N-[2-(4-aminopiperidin-1-yl)-5-methoxyphenyl]-6-bromopyrazine-2-carboxamide] | < 1 µM | < 1 µM | 1 to 10 µM | < 1000 nM | < 1 µM
COc1ccc(N2CCCC(N)C2)c(NC(=O)c2nc(Br)cnc2N)c1 (centres unmarked) [Example 212, 3-amino-N-[2-(3-aminopiperidin-1-yl)-5-methoxyphenyl]-6-bromopyrazine-2-carboxamide] | < 1 µM | < 1 µM | 10 to 25 µM | < 1000 nM | < 1 µM
Nc1nccnc1C(=O)Nc1cc(Cl)ccc1N1CCNCC1 [Example 213, 3-amino-N-(5-chloro-2-piperazin-1-ylphenyl)pyrazine-2-carboxamide] | 1 to 10 µM | 1 to 10 µM | > 25 µM | 1000 to 10000 nM | > 25 µM
Nc1nccnc1C(=O)Nc1cc(Cl)ccc1N1CCCC(N)C1 (centres unmarked) [Example 215, 3-amino-N-[2-(3-aminopiperidin-1-yl)-5-chlorophenyl]pyrazine-2-carboxamide] | < 1 µM | < 1 µM | > 25 µM | 1000 to 10000 nM | 1 to 10 µM
Cc1ccc(N2CCNCC2)c(NC(=O)c2nccnc2N)c1 [Example 216, 3-amino-N-(5-methyl-2-piperazin-1-ylphenyl)pyrazine-2-carboxamide] | 1 to 10 µM | 1 to 10 µM | > 25 µM | 1000 to 10000 nM | > 25 µM
Cc1ccc(N2CCCC(N)C2)c(NC(=O)c2nccnc2N)c1 (centres unmarked) [Example 218, 3-amino-N-[2-(3-aminopiperidin-1-yl)-5-methylphenyl]pyrazine-2-carboxamide] | < 1 µM | < 1 µM | > 25 µM | 1000 to 10000 nM | 10 to 25 µM
CC(=O)c1ccc(N2CCNCC2)c(NC(=O)c2nccnc2N)c1 [Example 219, N-(5-acetyl-2-piperazin-1-yl-phenyl)-3-aminopyrazine-2-carboxamide] | < 1 µM | < 1 µM | > 25 µM | 1000 to 10000 nM | 10 to 25 µM
NC(=O)c1cccc(-c2cnc(N)c(C(=O)Nc3ccccc3N3CCCC(N)C3)n2)c1 (centres unmarked) [Example 373, 3-amino-6-(3-carbamoyl-phenyl)-pyrazine-2-carboxylic acid [2-(3-amino-piperidin-1-yl)-phenyl]-amide] | – | – | < 1 µM | < 1000 nM | –
Nc1ncc(-c2ccccc2F)nc1C(=O)Nc1ccccc1N1CCCC(N)C1 (centres unmarked) [Example 374, 3-amino-6-(2-fluoro-phenyl)-pyrazine-2-carboxylic acid [2-(3-amino-piperidin-1-yl)-phenyl]-amide] | – | – | 1 to 10 µM | < 1000 nM | –
COc1ccc(-c2cnc(N)c(C(=O)Nc3ccccc3N3CCCC(N)C3)n2)cc1 (centres unmarked) [Example 375, 3-amino-6-(4-methoxy-phenyl)-pyrazine-2-carboxylic acid [2-(3-amino-piperidin-1-yl)-phenyl]-amide] | – | – | 1 to 10 µM | < 1000 nM | –
Cc1ccccc1-c1cnc(N)c(C(=O)Nc2[nH]c(=O)ncc2N2CCCC(N)C2)n1 (centres unmarked) [Example 400, 3-amino-6-o-tolyl-pyrazine-2-carboxylic acid [5-(3-amino-piperidin-1-yl)-2-oxo-2,3-dihydro-pyrimidin-4-yl]-amide] | – | – | < 1 µM | 1000 to 10000 nM | –
